What follows are molecules tested on M. tuberculosis H37Rv growth with meropenem, percent inhibition (assay: beta-lactam sensitization of Mtb H37Rv, H37Rv (AID 434955)).

SMILES	IC90 [µM]
CC[C@@](C)(NS(=O)(=O)OCC(Cl)(Cl)Cl)c1ccccc1	54.8
CCCn1nnnc1NC(=O)COc1ccc(Cl)cc1C	42.9
Cc1nn(-c2ccccc2)c(Cl)c1CN(C(=O)CCl)c1cccc2ccccc12	48.2
CCNC(=S)N/N=C1\C(=O)c2cccc3cccc1c23	7.61
Cn1ccnc1C(=O)Cc1ccc([N+](=O)[O-])cc1	22.6
O=C1Nc2c(ccc(Cl)c2Cl)C(=O)C1(F)c1ccccc1 (stereo unspecified)	71.7
C=CCc1cc(Cl)ccc1OCCCNC(C)CC (stereo unspecified)	51.3
CCC(=O)N1CCN(c2ccc(NC(=S)NC(=O)c3ccc(OC)c([N+](=O)[O-])c3)cc2)CC1	67.8
CCCc1cc(NC(=O)COC(=O)c2nccnc2N)n(-c2ccccc2)n1	50.8
CN1C/C(=N\S(=O)(=O)c2ccccc2)N(C)C1=O	33.7
CC(C)CC(=O)N1CCN(c2ccc([N+](=O)[O-])c(NCc3ccccc3)c2)CC1	48.6
C/C(=N\OCC(=O)Nc1nc2ccccc2s1)c1ccccc1	35.6
CC(=O)Nc1ccc(SCC(=O)c2cc(C)n(C)c2C)cc1	53.6
CC(=O)Nc1ccc(S(=O)(=O)Nc2cccc3cccnc23)cc1	43.3
CC/C(=N\NC(=O)c1ccc(-c2ccccc2)cc1)C12CC3CC(CC(C3)C1)C2	43.7
COc1ccc(OC)c(NC(=O)CS(=O)(=O)c2ccccc2)c1	14.3
C[C@H]1C=CC(=O)O[C@H]1c1ccccc1	49.5
O=[N+]([O-])c1cc(Cl)cc(/C=N/NC(=S)Nc2cc(S(=O)(=O)N3CCOCC3)ccc2Cl)c1O	29.3
CC(C)(C)C1=Nn2c(nnc2-c2ccccc2F)SC1	78.3

SMILES	IC90 [µM]
Cc1cccc2c(C(=O)n3cccn3)cc(-c3ccccc3Cl)nc12	26.8
COc1ccccc1N1CCN(CC(=O)Nc2cc(F)ccc2C)CC1	91
OCCCc1cn(-c2ccccc2)c2ccccc12	60.8
COc1cc(NC(=O)c2ccccc2)c(OC)cc1NC(=O)CN1CCOCC1	69.2
CC1CCCN(C(=O)C2CCN(c3ncnc4c3nc3n4CCCCC3)CC2)C1 (stereo unspecified)	49.7
O=C(N/N=C/c1ccc(OC(=O)c2ccc3c(c2)OCO3)cc1)c1cncc(Br)c1	48.3
CCOC(=O)C1CSC(CC(=O)Nc2ccc(Cl)c(Cl)c2)C(=O)N1 (stereo unspecified)	35.4
c1ccc(-n2c3ccccc3c3ccccc32)cc1	22.7
C/C(=N/NC(=O)c1cccs1)c1c(C)[nH]n(-c2nc3ccccc3s2)c1=O	1.58
COc1ccccc1NS(=O)(=O)c1cccc(N2CC(O)=C(c3ccccc3)C2=N)c1	16
COc1ccc(-c2csc(NC(CO)c3nc4ccccc4n3Cc3ccc(C)cc3)n2)cc1 (stereo unspecified)	26.4
COc1cc(C(=O)Nc2cccc(-c3cn4cccnc4n3)c2)cc(OC)c1OC	30.2
Cc1cccc(OCc2nc(-c3ccccn3)n[nH]2)c1	7.37
COc1cc(NC(=O)c2cccc(Cl)c2)c(OC)cc1NC(=O)CN1CCCCC1	75.5
Cc1c(C(=O)NCCC2=CCCCC2)sc2ncnc(N3CCCCC3C)c12 (stereo unspecified)	52
O=c1oc(-c2cccs2)nc2sc3c(c12)CCCC3	29.7
O=C1COc2ccc(C(=O)/C=C/c3ccccc3)cc2N1	12.2
Cc1cc(Br)ccc1NC(=O)CN1C(=O)C2CC=CCC2C1=O (stereo unspecified)	38.7
COc1ccc(N2C(=O)NC(=O)/C(=C\c3ccc([N+](=O)[O-])s3)C2=O)cc1	21.3

SMILES	IC90 [µM]
Cc1ccc(C(C)C)c(OCc2ccc(C(=O)N/N=C/c3ccc(C(=O)O)cc3)cc2)c1	49.5
O=C(NN1C(=O)C2C(C1=O)C1C=CC2C12CC2)c1ccncc1 (stereo unspecified)	13.9
COc1cc(C(=O)N/N=C/c2ccc(OC(=O)c3cccc(C)c3)cc2)ccc1O	53.4
C/C(CC(=O)NCc1ccco1)=N\NC(=O)CC#N	17.6
C=CCN=c1scc(-c2ccc(F)cc2)n1/N=C/c1ccccn1	71.7
Cc1nnnn1/C(=C\c1ccccc1)C(=O)OCC(=O)Nc1ccc(Cl)cc1F	25.5
CCC(C(=O)NC1C(=O)N2C(C(=O)O)=C(CSc3nnc(C)s3)CSC12)c1ccccc1 (stereo unspecified)	1.57
Cc1[nH]n(-c2ccccc2)c(=O)c1/C=N/NC(=O)c1cccc([N+](=O)[O-])c1	70.7
Cc1ccc(C2=NN3C(=O)c4ccccc4C3C2)cc1 (stereo unspecified)	35.1
CC/C(=N\NC(=S)NC(C)C)c1ccc(OC)c(OC)c1	15.5
Cn1c(SCC(=O)OC2CCCCC2)nnc1-c1ccc2c(c1)OCO2	34.9
CCCC(C)NC(=O)c1ccc(OCc2ccc(Cl)cc2)c(OC)c1 (stereo unspecified)	11.6
O=C(Oc1c(-c2ccccc2)c(=O)n2c3c(cccc13)CC2)c1ccc(F)cc1	34
CCOC(=O)c1c(NC(=O)COC(=O)c2ncc(Cl)c(Cl)c2Cl)sc(C(=O)N(C)C)c1C	27.7
COc1cccc(/C=N/Nc2nc(N3CCCC3)nc(N3CCCC3)n2)c1O	36.1
C/C(=N/NC(=O)c1ccccn1)c1ccncc1	23.1
O=C(COC(=O)c1ccc(Cl)cc1[N+](=O)[O-])NNC(=O)c1cccs1	51.1
COC(=O)c1sc(-c2ccc(C(C)(C)C)cc2)cc1NC(=O)CCC(=O)O	28.7

Reference: PubChem BioAssay AID434955 (Southern Research Specialized Biocontainment Screening …, 2010)
